Measurements published in US8952024B2, “Herbicidal pyrimidone derivatives” (E I du Pont de Nemours and Company, priority 2009, dated 2015).

Experiments:
Type in all cases: in vivo
[1] = tested on: Italian ryegrass (Lolium multiflorum); experiment: Test B pre-/postemergence plant response; conditions: for Ryegrass, Italian plant response rating (0 to 100 scale): 62 g ai/ha, postemergence, 0 is no effect, 100 is complete control, 13 to 15 days; for Plant response rating, Ryegrass, Italian: Postemergence, scale 0 to 100 (0 no effect, 100 complete control)
Outline: (§1)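 Greenhouse herbicide screen. Pre- and postemergence (1- to 4-leaf) spray of compound in solvent/surfactant mixture; loam–sand soil for pre, peat/vermiculite medium for post. Visual control rating 0–100 at 13 to 15 days after treatment.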

[2] = tested on: ragweed (common ragweed, Ambrosia elatior); experiment: Test B pre-/postemergence plant response; conditions: for Ragweed plant response rating (0 to 100 scale): 62 g ai/ha, postemergence, 0 is no effect, 100 is complete control, 13 to 15 days; for Plant response rating, Ragweed: Postemergence, scale 0 to 100 (0 no effect, 100 complete control)
Outline: as §1

[3] = tested on: wheat (Triticum aestivum); experiment: Test B pre-/postemergence plant response; conditions: for Wheat plant response rating (0 to 100 scale): 62 g ai/ha, postemergence, 0 is no effect, 100 is complete control, 13 to 15 days; for Plant response rating, Wheat: Postemergence, scale 0 to 100 (0 no effect, 100 complete control)
Outline: as §1

[4] = tested on: lambsquarters (Chenopodium album); experiment: Test B pre-/postemergence plant response; conditions: for Lambsquarters plant response rating (0 to 100 scale): 62 g ai/ha, 0 is no effect, 13 to 15 days
Outline: as §1

[5] = tested on: bermudagrass (Cynodon dactylon); experiment: Test B pre-/postemergence plant response; conditions: for Bermudagrass plant response rating (0 to 100 scale): 62 g ai/ha, 0 is no effect, 13 to 15 days
Outline: as §1

[6] = tested on: pigweed (Amaranthus retroflexus); experiment: Test B pre-/postemergence plant response; conditions: for Pigweed plant response rating (0 to 100 scale): 62 g ai/ha, 0 is no effect, 13 to 15 days
Outline: as §1

[7] = tested on: windgrass (Apera spica-venti); experiment: Test B postemergence plant response; conditions: for Windgrass plant response rating (0 to 100 scale): 62 g ai/ha, postemergence, 0 is no effect, 100 is complete control, 13 to 15 days; for Plant response rating, Windgrass: Postemergence, scale 0 to 100 (0 no effect, 100 complete control)
Outline: (§2)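 Plants at the 1- to 4-leaf stage (2 to 18 cm tall), grown in pots of peat moss/vermiculite medium with wetting agent and starter nutrients, received postemergence applications of test chemicals. After 13 to 15 days in a greenhouse, injury was rated visually against untreated controls on a 0 (no effect) to 100 (complete control) scale.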

[8] = tested on: winter barley (Hordeum vulgare); experiment: Test B postemergence plant response; conditions: for Barley plant response rating (0 to 100 scale): 62 g ai/ha, 0 is no effect, 13 to 15 days
Outline: as §2

[9] = tested on: canarygrass (Phalaris minor); experiment: Test B postemergence plant response; conditions: for Canarygrass plant response rating (0 to 100 scale): 62 g ai/ha, 0 is no effect, 13 to 15 days
Outline: as §2

[10] = tested on: chickweed (Stellaria media); experiment: Test B postemergence plant response; conditions: for Chickweed plant response rating (0 to 100 scale): 62 g ai/ha, 0 is no effect, 13 to 15 days
Outline: as §2

[11] = 31 g ai/ha, postemergence, scale 0 to 100, 0 is no effect, 100 is complete control
[12] = postemergence, 100 is complete control
[13] = Postemergence, 125 g ai/ha, scale 0 to 100 (0 no effect, 100 complete control)
[14] = Postemergence, 250 g ai/ha, scale 0 to 100 (0 no effect, 100 complete control)

| SMILES | Ryegrass, Italian plant response rating (0 to 100 scale) [1] | Plant response rating, Ryegrass, Italian ([1]; 125 g ai/ha) | Plant response rating, Ryegrass, Italian ([1]; 250 g ai/ha) | Ragweed plant response rating (0 to 100 scale) [2] | Plant response rating, Ragweed ([2]; 125 g ai/ha) | Plant response rating, Ragweed ([2]; 250 g ai/ha) | Wheat plant response rating (0 to 100 scale) [3] | Plant response rating, Wheat ([3]; 125 g ai/ha) | Plant response rating, Lambsquarters [4, 11] | Lambsquarters plant response rating (0 to 100 scale) [4, 12] | Plant response rating, Lambsquarters [4, 13] | Plant response rating, Lambsquarters [4, 14] | Plant response rating, Bermudagrass [5, 11] | Bermudagrass plant response rating (0 to 100 scale) [5, 12] | Plant response rating, Bermudagrass [5, 13] | Plant response rating, Bermudagrass [5, 14] | Plant response rating, Pigweed [6, 11] | Pigweed plant response rating (0 to 100 scale) [6, 12] | Plant response rating, Pigweed [6, 13] | Plant response rating, Pigweed [6, 14] | also measured |
| --- | --- | --- | --- | --- | --- | --- | --- | --- | --- | --- | --- | --- | --- | --- | --- | --- | --- | --- | --- | --- | --- |
| O=C1CCCC(O)=C1C(=O)c1cnc(-c2ccsc2)n(C2CCCCC2)c1=O [Compound 99] | 0 | 20 | 20 | 80 | 80 | 95 | 5 | 5 | 98 | 100 | 100 | 100 | 75 | 75 | 80 | 98 | 100 | 100 | 100 | 100 | Plant response rating, Wheat ([3]; 250 g ai/ha): 5; Windgrass plant response rating (0 to 100 scale) [7]: 5; Plant response rating, Windgrass ([7]; 125 g ai/ha): 10; Plant response rating, Windgrass ([7]; 250 g ai/ha): 60; Plant response rating, Barley [8, 11]: 5; Barley plant response rating (0 to 100 scale) [8, 12]: 5; Plant response rating, Barley [8, 13]: 10; Plant response rating, Barley [8, 14]: 30; Plant response rating, Canarygrass [9, 11]: 40; Canarygrass plant response rating (0 to 100 scale) [9, 12]: 60; Plant response rating, Canarygrass [9, 13]: 60; Plant response rating, Canarygrass [9, 14]: 70; Plant response rating, Chickweed [10, 11]: 80; Chickweed plant response rating (0 to 100 scale) [10, 12]: 98; Plant response rating, Chickweed [10, 13]: 98; Plant response rating, Chickweed [10, 14]: 98 |
| CCCn1c(-c2cccc(OC)c2)ncc(C(=O)C2=C(O)CCCC2=O)c1=O [Compound 100] | 5 | 10 | 50 | 70 | 75 | 80 | 5 | 15 | 95 | 98 | 98 | 98 | 70 | 70 | 75 | 85 | 90 | 98 | 98 | 98 | Windgrass plant response rating (0 to 100 scale) [7]: 40; Plant response rating, Windgrass ([7]; 125 g ai/ha): 45; Plant response rating, Barley [8, 11]: 5; Barley plant response rating (0 to 100 scale) [8, 12]: 20; Plant response rating, Barley [8, 13]: 30; Plant response rating, Barley [8, 14]: 50; Plant response rating, Canarygrass [9, 11]: 0; Canarygrass plant response rating (0 to 100 scale) [9, 12]: 5; Plant response rating, Canarygrass [9, 13]: 5; Plant response rating, Canarygrass [9, 14]: 10; Plant response rating, Chickweed [10, 11]: 75; Chickweed plant response rating (0 to 100 scale) [10, 12]: 75; Plant response rating, Chickweed [10, 13]: 95; Plant response rating, Chickweed [10, 14]: 100 |
